One molecule from paper PMC4104029, “Mechanism of Action of Compound-13: An α1-Selective Small Molecule Activator of AMPK” (Chemistry & Biology, 2014) can be followed below.

In one assay the test system is AMP deaminase-1. Briefly: AMPD1 assay. In kind it is biochemical, chicken. Conditions: concentrations up to 100 μM; data not shown. An excerpt:
Supplemental Experimental Procedures:
Materials. Compounds 2 and 13 were synthesised by PeakDale Molecular and Natalia Shpiro (MRC-PPU, Dundee), respectively, as described previously (Gomez-Galeno, et al., 2010).
A769662 was from Selleck Chemicals and AICAR from Toronto Research Chemicals. Mouse FBP1, PYGM and PFK1 (muscle isoform) were cloned, expressed and purified from E.coli using standard techniques. AMPD was purified from chicken muscle (Smiley, et al., 1967).
PP2Cα expressed in E.coli was from the Division of Signal Transduction Therapy (DSTT, Dundee). Peptides were synthesised by GL Biochem (Shanghai). [γ-32P]-ATP, [1-14C]-acetic acid and [9,10-3H(N)]-palmitic acid were from PerkinElmer. pS79 ACC1 (#3661), ACC1 […]
antibodies were purchased from Cell Signaling Technology. Anti-AMPKα1 (07-350) and AMPKα2 (07-363) used for immunoblotting were from Merck-Millipore. Anti-AMPKγ1 was from Origene (clone Y308). Anti-AMPKγ2 was from Epitomics (S1562). Anti-tubulin (B-5-1-2), anti-FLAG (F7425) and anti-FLAG M2 agarose were from Sigma. Anti-HA (HA.11) was from Covance Research Products. AMPKα1/2 antibodies used for immunoprecipitation kinase assays were described previously (Sakamoto, et al., 2006). […]
AMPK preparations. […] Isolated human AMPKα subunits were expressed as N-terminal GST-fusions in E.coli and activated as described for heterotrimeric complexes. […]

In assay [1] the target is AMPKα2β1γ1 Thr172 dephosphorylation by PP2Cα (Homo sapiens, UniProt P54619+P54646). Description: Phosphatase protection assay (PP2Cα). In kind it is biochemical. Conditions: incubation with PP2Cα; 1–10 μM. The procedure:
Figure 2 C2 Is a Partial Agonist of α2 Complexes and Selectively Protects α1 Complexes against Dephosphorylation by PP2C (A and B) Recombinant AMPKα1β1γ1 (A) or AMPKα2β1γ1 (B) was assayed in the presence of AMP (30 μM) and increasing concentrations of C2 (0–20 μM). Results are expressed as fold increase in activity relative to controls without ligand and represent the mean ± SD for three independent experiments. (C and D) The effects of C2 and AMP on dephosphorylation and inactivation of AMPKα1β1γ1 (C) and α2β1γ1 (D) by PP2Cα (present in all assay conditions). Results are expressed as a percentage of control reactions performed in the absence of Mg^2+ and represent the mean ± SD of three independent experiments. Representative blots of pT172 and total AMPKα are shown below the bar charts. (E) AMPKα1β1γ2 WT (open bars) and mutant complexes (β1 ΔCBD [β1 Δ1–185], gray bars, and γ2 R531G, black bars) were purified from COS1 cells by transient overexpression of the indicated constructs, as described in Methods, and assayed in the presence of the indicated compounds under standard conditions. Results are expressed as the fold increase in activity relative to controls in the absence of compound and represent the mean ± SD for three independent experiments.
AMPKα1β1γ1 or α2β1γ1 was dephosphorylated in vitro with PP2Cα in 50 mM HEPES pH 7.4, 10 mM MgCl2, 0.1 mM EGTA, 0.03% BRIJ-35, 1 mM DTT, and the indicated compounds for 15 min at 30°C. Mg^2+ was omitted from the negative control. Reactions were terminated by 20-fold dilution and storage on ice. AMPK activity was assayed under standard conditions in the presence of saturating AMP (200 μM). The results are expressed as percentage activity of the negative control. In control experiments, PP2Cα activity was determined in reactions containing 50 mM TES pH 7.4, 0.1 mM EGTA, 25 mM MgCl2, 0.01% BRIJ-35, 0.02% (v/v) 2-mercaptoethanol, and 100 μM EFLR(pT)SCGS (168–176 AMPKα2). Liberated phosphate was determined using malachite green ([Baykov et al., 1988]).

Sequence of AMPKα2β1γ1 Thr172 dephosphorylation by PP2Cα (P54646 whole entry): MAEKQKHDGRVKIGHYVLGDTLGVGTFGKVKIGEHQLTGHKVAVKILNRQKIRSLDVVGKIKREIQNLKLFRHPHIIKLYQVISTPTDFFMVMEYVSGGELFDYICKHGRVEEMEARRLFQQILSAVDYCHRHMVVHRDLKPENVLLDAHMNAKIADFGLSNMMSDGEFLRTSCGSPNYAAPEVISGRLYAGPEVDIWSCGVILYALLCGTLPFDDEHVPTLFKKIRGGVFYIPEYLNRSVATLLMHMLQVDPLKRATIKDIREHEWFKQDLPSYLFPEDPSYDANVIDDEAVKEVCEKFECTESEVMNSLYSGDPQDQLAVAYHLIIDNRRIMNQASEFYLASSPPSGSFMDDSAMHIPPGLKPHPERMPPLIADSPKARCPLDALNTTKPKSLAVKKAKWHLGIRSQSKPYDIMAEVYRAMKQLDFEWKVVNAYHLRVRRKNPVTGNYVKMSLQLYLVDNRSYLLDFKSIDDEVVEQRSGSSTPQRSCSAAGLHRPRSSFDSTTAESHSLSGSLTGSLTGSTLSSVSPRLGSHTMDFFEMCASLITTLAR
Sequence of AMPKα2β1γ1 Thr172 dephosphorylation by PP2Cα (Q9Y478 whole entry partner): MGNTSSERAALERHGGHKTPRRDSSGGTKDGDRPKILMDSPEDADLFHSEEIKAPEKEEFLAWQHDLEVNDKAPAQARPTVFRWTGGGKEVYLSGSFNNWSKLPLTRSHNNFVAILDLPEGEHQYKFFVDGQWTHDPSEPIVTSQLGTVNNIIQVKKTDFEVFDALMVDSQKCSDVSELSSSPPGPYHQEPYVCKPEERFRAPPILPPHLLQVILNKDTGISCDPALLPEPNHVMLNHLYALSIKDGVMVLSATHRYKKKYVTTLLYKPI
Sequence of AMPKα2β1γ1 Thr172 dephosphorylation by PP2Cα (P54619 whole entry): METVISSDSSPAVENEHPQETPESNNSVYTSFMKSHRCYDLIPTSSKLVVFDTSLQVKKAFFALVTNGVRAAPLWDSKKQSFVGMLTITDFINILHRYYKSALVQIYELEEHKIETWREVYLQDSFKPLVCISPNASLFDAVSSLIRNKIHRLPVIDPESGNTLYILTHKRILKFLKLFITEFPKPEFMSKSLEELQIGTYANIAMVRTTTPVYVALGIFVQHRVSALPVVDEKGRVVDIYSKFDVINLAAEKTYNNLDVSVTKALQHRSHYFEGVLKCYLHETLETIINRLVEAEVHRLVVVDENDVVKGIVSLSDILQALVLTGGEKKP

With `O=P(O)(O)c1ccc(-c2cc(O)on2)o1` [Compound C2, 5-(5-hydroxyl-isoxazol-3-yl)-furan-2-phosphonic acid], the “effect on enzyme activity” value with AMP deaminase-1 is listed as “None of these enzymes were affected”. The effect on dephosphorylation result in assay [1] is “essentially no effect”.
